One series deals with MCF-7. As to the kind of experiment: Mitochondrial membrane potential, rhodamine 123 flow cytometry. The format is cell-based, human. The settings on record: MCF-7, 72 h, concentration corresponding to IC60. The method, then: Cells were seeded in a 12-well plate at a density of 1 × 10^5 cells/well and incubated for 24 h at 37 °C in a humid atmosphere with 5% CO2 prior to treatment. Cells were bathed in complete DMEM media containing the respective compounds, using a solvent (dH2O/DMSO) as a negative control. After 72 h, the nutrient medium over cells containing the floating cells was collected into tubes, and then the adherent cells were trypsinized and added to the fraction of floating cells. Cell suspensions were then centrifuged, and the pellet was suspended in phosphate-buffered saline (PBS) to a final density of 5 × 10^5 cells/mL. Cell suspension in a volume of 250 μL and 500 nM rhodamine 123 were added to a rounded-well plate, followed by incubation for 30 min at 25° C. Measurements were conducted using flow cytometry on the Millipore Guava EasyCyte HT Flow Cytometer System in a green fluorescent channel.
On the technique in general: A flow cytometer gives signals particle by particle.

Another series relates to MCF-7 cells. Nature of the series: Comet assay. The conditions noted are these: for Olive Moment / Tail Area / Tail DNA % / Tail Intensity / Tail Length / Tail Moment: 3 days. The series is classed as cell-based, human. Details: Tail Length: unit not given here.

SMILES strings stand for the structures.

Protocol for MCF-7 cells: PC-3 and MCF-7 cells were seeded into 6-well plates at a concentration of 15,000 cells/mL. […] Cells were trypsinized and washed, then placed in 0.7% low melting point agarose and mounted on glass slides (200 000 cells/sample). Slides were treated with lysis solution (2.5 M NaCl, 0.1 M disodium EDTA, 1% Triton X-100, 10 mM Tris base, 10% DMSO, pH 10) for 1 h at 4 °C. Next, the samples were placed in an alkaline solution (12 g of NaOH brought to 1 L with water, disodium EDTA 0.2 M, pH >13) and incubated for 30 min at room temperature. Afterward, the slides were washed with electrophoresis 1X TBE buffer (10X TBE: 9.3 g disodium salt EDTA, 108 g Tris base, and 55 g boric acid per 1 L of water) twice and placed in the electrophoresis chamber. Electrophoresis was carried out under neutral conditions in 1X TBE buffer for 30 min at 31 V (at the rate of 1 V/cm). Afterward, the slides were washed in PBS (Ca free, Mg free) 2 times for 5 min, fixed in 96% ethanol for 5 min, and dried. Before analysis, 50 μL of SYBR Green solution (1μL stock + 10 mL TE buffer) was applied to the slides. Using an Observer Z1 fluorescent optical microscope (Carl Zeiss, Jena, Germany), photographs of cells were taken and analyzed in the ImageJ program (Plugin OpenComet).
“Tail moment” (TM) and “Olive moment” (OTM) were calculated using the following formula:(1) TM=(Fluor in tail/Fluor total )×tail lenght (2) OTM=(Tail mean−Head mean)×(Tail DNA %)/100.

For the molecule `COc1cccc2c1C(=O)c1c(O)c3c(c(O)c1C2=O)CC(O)(C(=O)CO)CC3OC1CC(NC(=O)/C=C/c2cnc(C)c3c2COC(C)(C)O3)C(O)C(C)O1` (centres unmarked) [DOX-2, (E)-N-(3-hydroxy-2-methyl-6-((3,5,12-trihydroxy-3-(2-hydroxyacetyl)-10-methoxy-6,11-dioxo-1,2,3,4,6,11-hexahydrotetracen-1-yl)oxy)tetrahydro-2H-pyran-4-yl)-3-(2,2,8-trimethyl-4H-[1,3]dioxino[4,5-c]pyridin-5-yl)acrylamide], the “Cells with reduced mitochondrial potential” value in the series on MCF-7 is listed as “up to 27%”. Besides, in the series on MCF-7 cells (MCF-7, 5 µM (IC30)), the “Olive Moment” value came out at 0.73, the “Tail Area” value was found to be 1254, the “Tail DNA %” value worked out at 1.3% and the “Tail Intensity” value is on record as 10. In the series on MCF-7 cells (MCF-7, 5 µM (IC30)), the “Tail Length” value is 4.9 and the “Tail Moment” value stood at 0.14. Also, in the series with MCF-7 cells (MCF-7, 10 µM (IC60)), the “Olive Moment” value is recorded as 1.42, the “Tail Area” value is reported as 637, the “Tail DNA %” value is 5.1% and the “Tail Intensity” value was found to be 21. Moreover, in the series with MCF-7 cells (MCF-7, 10 µM (IC60)), the “Tail Length” value is reported as 1.5 and the “Tail Moment” value was found to be 0.21. In addition, in the series on MCF-7 cells (MCF-7, 20 µM (IC70)), the “Olive Moment” value is given as 1.01, the “Tail Area” value came to 876, the “Tail DNA %” value is given as 1.9% and the “Tail Intensity” value is given as 20. In addition, in the series on MCF-7 cells (MCF-7, 20 µM (IC70)), the “Tail Length” value is on record as 5.8 and the “Tail Moment” value stood at 0.25. Moreover, the “DNA breaks in the Comet assay (in words)” value in the series on MCF-7 cells (MCF-7, 72 h) was “do not cause DNA breaks”.

(Values after paper PMC10970924 (Life, 2024).)
